Entries after “also recorded” stand apart in the source; their conditions may differ.
Assays:
[1] = system: Type II collagen-induced arthritis (CIA); experiment: Collagen-induced arthritis (CIA) mouse model, clinical assessment; type: in vivo, DBA/1 LacJ mice; details: vs saline control mice; for number of involved (arthritic) paws: Formula III 40 mg/kg i.p. ×3/week or gavaged ×5/week, Enbrel 100 μg i.p. ×3/week, prednisolone 10 mg/kg gavaged ×5/week
Excerpt: Type II collagen-induced arthritis (CIA) in mice is an accepted experimental model of arthritis with a number of pathological, immunological and genetic features in common with rheumatoid arthritis. This disease is induced by immunization of susceptible strains of mice with type II collagen, the major component of joint cartilage. A progressive, inflammatory arthritis develops in the majority of immunized animals, which is characterized clinically by erythema and edema, with affected paw width increases of typically 100%. A clinical scoring index has been developed to assess disease progression to joint distortion and spondylitis. […] Immunological laboratory findings include high antibody levels to type II collagen and hypergammaglobulinemia.
(§1) This study was designed to evaluate the anti-inflammatory and anti-arthritic activity of compound of Formula III using the CIA model by observing changes in immune parameters due to treatment. The animals were administered oral corticosteroid, Enbrel, an injectable TNF inhibitor, and compound of Formula III using both oral and parenteral delivery. Seventy-five DBA/1 LacJ mice 8-10 weeks of age were obtained from Jackson Labs and quarantined in our facility for 10 days prior to experimentation. All mice weighed >16 grams at the start of the experiment. Mice were pre-bled by retro-orbital puncture, and injected with 100 μg Bovine type II collagen in Freund's complete adjuvant (FCA) intradermally at the base of the tail. Mice were monitored by daily examination for the onset of disease. Mice that developed CIA between 20 days post immunization and 42 days post immunization were assigned to one of five treatment groups on a rotational basis (to normalize onset date), and ten mice were assigned to each group. For administration, compound of Formula III was solubilized in sterile saline. To facilitate drugs delivered by oral administration, carboxymethylcellulose was added to a final concentration of 4% in all gavage solutions. Compounds were administered according to the following schedule: • Group 1. 100 μl sterile saline vehicle injected intraperitoneally (i.p.) ×3/week. • Group 2. 100 μl sterile saline containing compound of Formula III at 40 mg/kg injected i.p. ×3/week. • Group 3. 100 μl sterile saline containing 100 μg Enbrel injected i.p. ×3/week. • Group 4. 100 μl sterile saline containing compound of Formula III at 40 mg/kg gavaged ×5/week. • Group 5. 100 μl sterile saline containing prednisolone 10 mg/kg gavaged ×5/week.
Mice were weighed weekly, and overall health status noted. Arthritic animals were clinically assessed by visual inspection five times per week, and paw swelling quantified by caliper measurements made three times per week, until seven weeks after the initial onset of arthritis. All animals were assessed individually from the time of disease onset, and the appropriate findings were entered into clinical report forms.

[2] = system: anti-type II collagen antibody; type: in vivo, DBA/1 LacJ mice; details: after seven weeks of treatment, Prednisolone 10 mg/kg gavaged ×5/week, Formula III 40 mg/kg i.p. ×3/week; for terminal anti-CII antibody levels compared with control mice: p<0.01
Experimental: as §1
All mice were pre-bled prior to the start of the trial, subsequently at onset of arthritis and at the completion of the trial. Sera were separated and stored at −80° C. ELISA assays were performed to determine anti-type II collagen antibody levels and total immunoglobulin levels.
ELISA plates (Nunc-Immuno plates, Denmark) were coated with 100 μl of coating buffer (0.4M phosphate buffer ph7.6) containing 5 μg of type II collagen, at 4° C. overnight. Plates were washed 3 times with PBS containing 0.05% Tween 20 (Sigma, St. Louis, Mo.) and non specific binding was blocked by PBS containing 5% non fat milk overnight at 4° C. Mouse sera diluted to 1/100 in 5% milk/PBS was added to each well and incubated overnight at 4° C. […] The resulting optical density was measured at 405 nm by using a UV max spectrophotometer (Molecular Devices, CA). […] Antibody binding was expressed as OD405 units-blank.

[3] = system: total serum Ig; experiment: Total serum immunoglobulin levels in CIA mice (ELISA); type: in vivo, DBA/1 LacJ mice; details: Prednisolone 10 mg/kg gavaged ×5/week; Formula III 40 mg/kg i.p. ×3/week
Experimental: This study was designed to evaluate the anti-inflammatory and anti-arthritic activity of compound of Formula III using the CIA model by observing changes in immune parameters due to treatment. The animals were administered oral corticosteroid, Enbrel, an injectable TNF inhibitor, and compound of Formula III using both oral and parenteral delivery. Seventy-five DBA/1 LacJ mice 8-10 weeks of age were obtained from Jackson Labs and quarantined in our facility for 10 days prior to experimentation. All mice weighed >16 grams at the start of the experiment. Mice were pre-bled by retro-orbital puncture, and injected with 100 μg Bovine type II collagen in Freund's complete adjuvant (FCA) intradermally at the base of the tail. Mice were monitored by daily examination for the onset of disease. Mice that developed CIA between 20 days post immunization and 42 days post immunization were assigned to one of five treatment groups on a rotational basis (to normalize onset date), and ten mice were assigned to each group. For administration, compound of Formula III was solubilized in sterile saline. […]
Serum Ig levels was assessed using an ELISA assay. […] The plate was read at 405 nm using a Photospectrometer (Molecular Devices), and the data analyzed using the SOFTmax analytical software package. […]

[4] = system: plasma lipoprotein cholesterol and triglyceride; experiment: Antilipidemic activity in hamsters fed hypercholesterolemic diet; type: in vivo, Syrian Golden hamsters; details: day 8 of treatment
Excerpt: Eighty-five male Syrian Golden hamsters (F1B strain, BioBreeders, Fitchburg Mass.) approximately 8-10 weeks of age were acclimated to individual hanging polystyrene cages with bedding for 1 week and then fed a semipurified hypercholesterolemic diet (HCD) containing 25% casein, 20% hydrogenated coconut oil, 2% safflower oil, and 0.15% cholesterol by weight for 2 weeks prior to initiation of the experimental treatments (Table 1). Hamsters were then bled (Week 0) following an overnight fast (16 hr) to determine plasma concentrations of total cholesterol, HDL-C, nonHDL-C, and triglycerides and divided into 17 groups (n=5/group) with similar starting plasma HDL-C levels, and administered either compound of Formula II or vehicle once per day for 14 days.
Plasma total cholesterol, HCL-C, nonHDL-C, and triglycerides were then measured at day 8 (prior to gavage that day) and at day 15 (24 hr after last gavage) following and overnight fast (16 hr). Hamsters were maintained in accordance with the guidelines of the Animal Care Committee at the University of Massachusetts-Lowell Research Foundation and the guidelines prepared by the Committee on the Care and Use of Laboratory Animals of the Institute of Laboratory Animal Resources, National Research Council (DHEW publication no 85-23, revised 1985). Hamsters were housed in an environmentally controlled room with an alternating 12-h light/dark cycle and given ad libitum access to food and water except when food is withheld for the experimental protocols.
Blood was collected via the retro-orbital sinus into heparinized tubes from hamsters fasted for 16 h at days 0, 8, and 15. Plasma was harvested after centrifugation at 1500-×g at room temperature for 10 min and plasma total cholesterol and triglyceride concentrations were measured enzymatically. Plasma LDL cholesterol (combination of very low-density, intermediate, and low-density lipoprotein-cholesterol) was precipitated with phosphotungstate reagent and HDL cholesterol was measured in the supernatant. The concentration of LDL cholesterol was calculated as the difference between plasma TC and HDL cholesterol. The accuracy and precision of the procedures used for the measurements of plasma TC and HDL cholesterol were maintained by participation in the Lipid Standardization Program of the Centers for Disease Control and the National Heart, Blood and Lung Institute (Atlanta, Ga.). All reagents used were supplied by Sigma-Aldrich (St. Louis, Mo.). All assays were performed using a Cobas Mira Plus® (Cobas Mira Plus® is a registered trademark of Roche Diagnostic Systems, Inc.) clinical chemistry autoanalyzer using 10 μl of plasma for each sample (Roche Pharmaceuticals, Basel, Switzerland).

[5] = system: lymph node cells; experiment: Lymph node cell mitogen and antigen proliferative responses (MTT) from treated CIA mice; type: in vivo, DBA/1 LacJ mice; details: mice treated 40 mg/kg i.p. ×3/week; p<0.05
Experimental: This study was designed to evaluate the anti-inflammatory and anti-arthritic activity of compound of Formula III using the CIA model by observing changes in immune parameters due to treatment. The animals were administered oral corticosteroid, Enbrel, an injectable TNF inhibitor, and compound of Formula III using both oral and parenteral delivery. Seventy-five DBA/1 LacJ mice 8-10 weeks of age were obtained from Jackson Labs and quarantined in our facility for 10 days prior to experimentation. All mice weighed >16 grams at the start of the experiment. […] Mice were monitored by daily examination for the onset of disease. […]
Spleen and lymph nodes were removed at sacrifice, and mitogen responses to Con A and LPS, and antigen proliferative responses to type II collagen were determined using standard techniques. […] After incubation at 37° C. overnight, the optical density at 590 nm was read using a microplate photospectrometer (Molecular Devices, CA). The mean and OD values, which provide a measure of cell proliferation, were recorded for each cell sample with respect to antigen stimulation. Antigen specific responses were expressed as (OD590 [Stimulated Culture]−OD590 [Spontaneous proliferation culture])/OD590 [Spontaneous proliferation culture].

[6] = injected i.p. ×3/week (Formula III 40 mg/kg; Enbrel 100 μg)
[7] = gavaged ×5/week (Formula III 40 mg/kg; prednisolone 10 mg/kg)

Enbrel was tested, and the “number of involved (arthritic) paws” value [1] was “significantly lower number of arthritic paws” and the arthritis score [1, 6] was “significantly reduced the arthritis score; also recorded: significant reduction”.
For C[C@]12C=CC(=O)C=C1CC[C@@H]1[C@@H]2[C@@H](O)C[C@@]2(C)[C@H]1CC[C@]2(O)C(=O)CO [Prednisolone, prednisolone, reference compound], the “terminal anti-CII antibody levels compared with titers at disease onset” value [2] was “minor decrease”, the “terminal anti-CII antibody levels compared with control mice” value [2] was “significant reduction” and the “number of involved (arthritic) paws” value [1] was “significantly lower number of arthritic paws”. For the same compound, the arthritis score [1, 7] was “significant reduction”, the arthritis score ([1]; gavaged ×5/week (Formula III 40 mg/kg; prednisolone 10 mg/kg), listed as prednisolone) was “significantly reduced the arthritis score” and the “reduction of total serum Ig levels at the terminal bleed vs control mice” value [3] was “not significantly different”.
In the case of COc1cccc2c1[n+]([O-])c1cccc(O)c1[n+]2[O-] [compound of Formula III], the “plasma HDL-C change compared to vehicle control” value (shortened to “plasma HDL-C change”) ([4]; 0.9 mg/kg once per day) is reported as −2%, the “plasma nonHDL-C change compared to vehicle control” value (“plasma nonHDL-C change” for short) ([4]; 0.9 mg/kg once per day) is reported as −36% and the “plasma total cholesterol change compared to vehicle control” value (shortened to “plasma total cholesterol change”) ([4]; 0.9 mg/kg once per day) is reported as −27%. For the same compound, the “plasma triglycerides change compared to vehicle control” value (“plasma triglycerides change” for short) ([4]; 0.9 mg/kg once per day) was −37%, the “plasma HDL-C change” value ([4]; 1.8 mg/kg once per day) was 7% and the “plasma nonHDL-C change” value ([4]; 1.8 mg/kg once per day) was −24%. The “plasma total cholesterol change” value ([4]; 1.8 mg/kg once per day) was −17%, the “plasma triglycerides change” value ([4]; 1.8 mg/kg once per day) was −14% and the “plasma HDL-C change” value ([4]; 3.6 mg/kg once per day) was −4%. The “plasma nonHDL-C change” value ([4]; 3.6 mg/kg once per day) was −26%, the “plasma total cholesterol change” value ([4]; 3.6 mg/kg once per day) was −21% and the “plasma triglycerides change” value ([4]; 3.6 mg/kg once per day) was −20%. For the same compound, the “terminal anti-CII antibody levels compared with titers at disease onset” value [2] was “maintenance of titers equivalent to the levels at onset”, the “terminal anti-CII antibody levels compared with control mice” value [2] was “significant reduction” and the “lymph node cell response to LPS” value [5] was “significant reduction”. The “number of involved (arthritic) paws” value [1] was “did not significantly influence the number of involved paws”, the arthritis score [1, 7] was “did not exert a statistically significant effect” and the arthritis score [1, 6] was “marked effect; also recorded: significant reduction”. The “reduction of total serum Ig levels at the terminal bleed vs control mice” value [3] was “not significantly different”.
